Data reported in patent US9187472B2 (AbbVie Inc., priority 2012, dated 2015).

How the values were obtained:
[1] = target: NAMPT (human, recombinant, C-terminally His-tagged) (Homo sapiens, UniProt P43490); assay: Time-Resolved Fluorescence Resonance Energy Transfer (TR-FRET) Binding Assay of NAMPT; conditions: without substrates; 6.8 nM NAMPT, 200 nM probe, 3 hours equilibration
Description: Determination of the utility of compounds having Formula (I) as binders to and inhibitors of NAMPT was performed using Time-Resolved Fluorescence Resonance Energy Transfer (TR-FRET) binding assays.
Time-Resolved Fluorescence Resonance Energy Transfer (TR-FRET) Binding Assay of NAMPT
Test compounds were serially diluted (typically 11 half log dilutions) in neat DMSO to 50× final concentrations prior to dilution with assay buffer (50 mM HEPES (NaOH), pH 7.5, 100 mM NaCl, 10 mM MgCl2, 1 mM DTT, 1% Glycerol) to 3× and 6% DMSO. Six μL were transferred to 384-well low-volume plates (Owens Corning #3673). To this, […] of a 1.5× solution containing enzyme, probe and antibody were added. Final concentrations in the 18 μL, reactions were 1× assay buffer, 2% DMSO, 6.8 nM NAMPT (human, recombinant, C-terminally His-tagged), 200 nM probe (a potent nicotinamide-competitive inhibitor conjugated to Oregon Green 488) and 1 nM Tb-anti-His antibody (Invitrogen # PV5895). Reactions were equilibrated at room temperature for 3 hours prior to reading on an Envision multi-label plate reader (Perkin Elmer; Ex=337 nm, Em=520 and 495 nm). Time-resolved FRET ratios (Em520/Em495) were normalized to controls, plotted as a function of compound concentration and fit with the four-parameter logistic equation to determine IC50s.

[2] = tested on: PC3 cells; assay: NAMPT Cell Proliferation Assay; format: cell-based; conditions: Homo sapiens, PC-3, 120 h, 5 days incubation, cell viability by Cell Titer Glo
How it was run: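 Seed PC3 at 500 cells/well (RPMI, 10% HI-FBS), attach overnight; add compound, 10-fold series 10 μM → 1×10^−5 μM; incubate 5 d, 37° C/5% CO2; luminescent viability readout; fit % inhibition sigmoidally for IC50.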

[3] = target: NAMPT (Homo sapiens, UniProt P43490); assay: TR-FRET Binding Assay of NAMPT with PRPP; conditions: with 200 μM PRPP and 2.5 mM ATP; 2 nM NAMPT, 2 nM probe, 16 hours equilibration
Description: Time-Resolved Fluorescence Resonance Energy Transfer (TR-FRET) Binding Assay of NAMPT with PRPP
Compound handling and data processing were identical to the assay in the absence of substrates (above). Final concentrations were 1× assay buffer, 2% DMSO, 2 nM NAMPT, 2 nM probe, 1 nM Tb-anti-His antibody (Invitrogen # PV5895), 200 μM PRPP and 2.5 mM ATP. Reactions were equilibrated for 16 hours prior to measurement to allow for potential enzymatic modification of test compounds.

NAMPT, sequence (P43490 whole entry): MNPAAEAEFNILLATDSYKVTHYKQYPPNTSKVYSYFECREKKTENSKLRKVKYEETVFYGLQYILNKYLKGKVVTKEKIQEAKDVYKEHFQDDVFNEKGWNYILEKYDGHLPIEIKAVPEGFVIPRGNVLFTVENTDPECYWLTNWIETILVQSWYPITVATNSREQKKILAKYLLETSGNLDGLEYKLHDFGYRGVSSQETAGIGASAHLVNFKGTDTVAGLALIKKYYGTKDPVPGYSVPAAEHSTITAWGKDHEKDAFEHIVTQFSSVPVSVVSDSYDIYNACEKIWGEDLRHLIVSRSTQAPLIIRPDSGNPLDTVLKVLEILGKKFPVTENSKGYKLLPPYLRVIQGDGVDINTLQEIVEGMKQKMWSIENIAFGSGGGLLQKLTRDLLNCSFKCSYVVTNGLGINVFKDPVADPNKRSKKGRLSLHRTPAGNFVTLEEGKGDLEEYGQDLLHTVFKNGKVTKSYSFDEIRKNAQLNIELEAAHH
NAMPT (human, recombinant, C-terminally His-tagged), sequence (P43490 whole entry): as above

IC50 [1] | IC50 [2] | IC50 [3] | Compound
289 nM | 49.7 nM | 0.445 nM | O=C(NCc1ccn2ccnc2c1)c1cnc(C2CCN(C(=O)c3ccccc3F)C2)s1 (stereo not drawn) [Example 804, 2-[1-(2-fluorobenzoyl)pyrrolidin-3-yl]-N-(imidazo[1,2-a]pyridin-7-ylmethyl)-1,3-thiazole-5-carboxamide]
145 nM | 5.08 nM | 0.251 nM | CC(C)CC(=O)N1CCC(c2ccc(C(=O)NCc3ccn4ccnc4c3)cc2)CC1 [Example 534, N-(imidazo[1,2-a]pyridin-7-ylmethyl)-4-[1-(3-methylbutanoyl)piperidin-4-yl]benzamide]
180 nM | 64.3 nM | 0.297 nM | O=C(NCc1ccn2ccnc2c1)Nc1ccc(O[C@@H]2CCN(C(=O)CC3CC3)C2)cc1 [Example 332, 1-(4-{[(3R)-1-(cyclopropylacetyl)pyrrolidin-3-yl]oxy}phenyl)-3-(imidazo[1,2-a]pyridin-7-ylmethyl)urea]
1.77 nM | 0.613 nM | 0.796 nM | O=C(NCc1ccn2ccnc2c1)c1ccc(C2CCN(C(=O)c3ccccc3F)CC2)s1 [Example 677, 5-[1-(2-fluorobenzoyl)piperidin-4-yl]-N-(imidazo[1,2-a]pyridin-7-ylmethyl)thiophene-2-carboxamide]
1030 nM | 695 nM | 1.01 nM | N#Cc1cccc(C(=O)N2CCC(c3ccc(C(=O)NCc4ccn5ccnc5c4)cc3)C2)c1 (stereo not drawn) [Example 603, 4-[1-(3-cyanobenzoyl)pyrrolidin-3-yl]-N-(imidazo[1,2-a]pyridin-7-ylmethyl)benzamide]
419 nM | 58.1 nM | 0.467 nM | O=C(NCc1ccn2ccnc2c1)Nc1ccc(C2CCN(C(=O)[C@@H]3CCCO3)C2)cc1 (stereo partly drawn) [Example 387, 1-(imidazo[1,2-a]pyridin-7-ylmethyl)-3-(4-{1-[(2S)-tetrahydrofuran-2-ylcarbonyl]pyrrolidin-3-yl}phenyl)urea]
98.4 nM | 5.26 nM | 0.705 nM | O=C(NCc1ccn2ccnc2c1)c1ccc(C2CCN(C(=O)C3CCCC3)C2)s1 (stereo not drawn) [Example 769, 5-[1-(cyclopentylcarbonyl)pyrrolidin-3-yl]-N-(imidazo[1,2-a]pyridin-7-ylmethyl)thiophene-2-carboxamide]
91.1 nM | 4.02 nM | 0.278 nM | CC(C)CC(=O)N1CCC(c2ccc(C(=O)NCc3ccn4ccnc4c3)s2)C1 (stereo not drawn) [Example 467, N-(imidazo[1,2-a]pyridin-7-ylmethyl)-5-[1-(3-methylbutanoyl)pyrrolidin-3-yl]thiophene-2-carboxamide]
86.4 nM | 6.77 nM | 0.213 nM | Cc1noc(C)c1C(=O)N1CCC(c2ccc(C(=O)NCc3ccn4ccnc4c3)cc2)CC1 [Example 525, 4-{1-[(3,5-dimethyl-1,2-oxazol-4-yl)carbonyl]piperidin-4-yl}-N-(imidazo[1,2-a]pyridin-7-ylmethyl)benzamide]
251 nM | 71.9 nM | 0.534 nM | O=C(NCc1ccn2ccnc2c1)Nc1ccc(OC2CCN(C(=O)c3cccc(F)c3)CC2)cc1 [Example 726, 1-(4-{[1-(3-fluorobenzoyl)piperidin-4-yl]oxy}phenyl)-3-(imidazo[1,2-a]pyridin-7-ylmethyl)urea]
179 nM | 40 nM | 0.251 nM | CC(C)C(=O)N1CCC(c2ccc(NC(=O)NCc3ccn4ccnc4c3)cc2)C1 (stereo not drawn) [Example 380, 1-(imidazo[1,2-a]pyridin-7-ylmethyl)-3-{4-[1-(2-methylpropanoyl)pyrrolidin-3-yl]phenyl}urea]

The next lines start with the molecule.

Compound | IC50 [1] | IC50 [2] | IC50 [3]
O=C(CCC1CCCO1)Nc1ccc(C(=O)NCc2ccn3ccnc3c2)cc1 (stereo not drawn) [Example 210, N-(imidazo[1,2-a]pyridin-7-ylmethyl)-4-{[3-(tetrahydrofuran-2-yl)propanoyl]amino}benzamide] | 469 nM | 398 nM | 0.363 nM
CCOCC(=O)Nc1ccc(NC(=O)Nc2ccc3nccn3c2)cc1 [Example 39, 2-ethoxy-N-{4-[(imidazo[1,2-a]pyridin-6-ylcarbamoyl)amino]phenyl}acetamide] | 814 nM | 7280 nM | 0.26 nM
CC(C)(C)OC(=O)N1CCC(c2ccc(C(=O)NCc3ccn4ccnc4c3)cc2)CC1 [Example 217, tert-butyl 4-{4-[(imidazo[1,2-a]pyridin-7-ylmethyl)carbamoyl]phenyl}piperidine-1-carboxylate] | 220 nM | 3.42 nM | 0.2 nM
O=C(CCC1CCCC1)Nc1ccc(C(=O)NCc2ccn3ccnc3c2)cc1 [Example 212, 4-[(3-cyclopentylpropanoyl)amino]-N-(imidazo[1,2-a]pyridin-7-ylmethyl)benzamide] | 44.8 nM | 34.1 nM | 0.21 nM
CC(C)(C)OC(=O)N1CC=C(c2ccc(CC(=O)Nc3ccc4nccn4c3)cc2)CC1 [Example 314, tert-butyl 4-{4-[2-(imidazo[1,2-a]pyridin-6-ylamino)-2-oxoethyl]phenyl}-3,6-dihydropyridine-1(2H)-carboxylate] | 1980 nM | 395 nM | 0.581 nM
O=C(Nc1ccc(C2=CCN(C(=O)C3CCS(=O)(=O)CC3)CC2)cc1)Nc1ccc2nccn2c1 [Example 37, 1-(4-{1-[(1,1-dioxidotetrahydro-2H-thiopyran-4-yl)carbonyl]-1,2,3,6-tetrahydropyridin-4-yl}phenyl)-3-imidazo[1,2-a]pyridin-6-ylurea] | 129 nM | 34.7 nM | 0.309 nM
CC(C)(O)Cn1cc(-c2ccc(C(=O)NCc3ccn4ccnc4c3)s2)cn1 [Example 182, 5-[1-(2-hydroxy-2-methylpropyl)-1H-pyrazol-4-yl]-N-(imidazo[1,2-a]pyridin-7-ylmethyl)thiophene-2-carboxamide] | 139 nM | 1.37 nM | 0.4 nM
O=C(NCc1ccn2ccnc2c1)c1ccc(C2CCN(C(=O)CC3CC3)CC2)cc1 [Example 312, 4-[1-(cyclopropylacetyl)piperidin-4-yl]-N-(imidazo[1,2-a]pyridin-7-ylmethyl)benzamide] | 165 nM | 65 nM | 0.243 nM
O=C(NCc1ccc2nccn2c1)c1cnc(N(CC2CCOCC2)C(=O)C2CCOC2)s1 (stereo not drawn) [Example 143, N-(imidazo[1,2-a]pyridin-6-ylmethyl)-2-[(tetrahydrofuran-3-ylcarbonyl)(tetrahydro-2H-pyran-4-ylmethyl)amino]-1,3-thiazole-5-carboxamide] | 8710 nM | 80.8 nM | 2.03 nM
O=C(CC1CCOC1)Nc1ccc(C(=O)NCc2ccn3ccnc3c2)cc1 (stereo not drawn) [Example 214, N-(imidazo[1,2-a]pyridin-7-ylmethyl)-4-[(tetrahydrofuran-3-ylacetyl)amino]benzamide] | 641 nM | 289 nM | 1.28 nM
CC[C@H](C)C(=O)N1CCC(c2ccc(C(=O)NCc3ccn4ccnc4c3)cc2)CC1 [Example 238, N-(imidazo[1,2-a]pyridin-7-ylmethyl)-4-{1-[(2S)-2-methylbutanoyl]piperidin-4-yl}benzamide] | 123 nM | 2.57 nM | 0.187 nM
O=C(NC1(c2ccc(C(=O)NCc3ccn4ccnc4c3)s2)COC1)c1ccccc1 [Example 325, 5-[3-(benzoylamino)oxetan-3-yl]-N-(imidazo[1,2-a]pyridin-7-ylmethyl)thiophene-2-carboxamide] | 180 nM | 32.9 nM | 0.278 nM
O=C(NCc1ccc2nccn2c1)c1ccc(-c2cnn(CC3CCCOC3)c2)s1 (stereo not drawn) [Example 206, N-(imidazo[1,2-a]pyridin-6-ylmethyl)-5-[1-(tetrahydro-2H-pyran-3-ylmethyl)-1H-pyrazol-4-yl]thiophene-2-carboxamide] | 25.7 nM | 1.31 nM | 0.263 nM
CC(C)(C)OC(=O)N1CCC(c2ccc(C(=O)Nc3ccn4ccnc4c3)cc2)CC1 [Example 322, tert-butyl 4-[4-(imidazo[1,2-a]pyridin-7-ylcarbamoyl)phenyl]piperidine-1-carboxylate] | 6040 nM | > 10000 nM | 34.1 nM
O=C(NCc1ccc2nccn2c1)c1ccc(-c2cnn(CC3CCCO3)c2)s1 (stereo not drawn) [Example 219, N-(imidazo[1,2-a]pyridin-6-ylmethyl)-5-[1-(tetrahydrofuran-2-ylmethyl)-1H-pyrazol-4-yl]thiophene-2-carboxamide] | 79.4 nM | 5.59 nM | 0.903 nM
